Test results as given in patent US20220347308A1, “METHODS AND MEANS FOR INDUCING AN IMMUNE RESPONSE” (BIONTECH AG, priority 2015, published 2022).

Tested on: interferon-alpha
Test: Sensitization by a first danger signal to a subsequent Protamine-RNA injection, serum interferon-alpha (ELISA)
Assay type: in vivo, mice
Conditions: first injection: 50 micrograms CpG, 10 micrograms imiquimod, 2 micrograms dsRNA or 10 micrograms RNA in particles, then 10 micrograms RNA in Protamine particles, sera 3 h after second injection, vs single Protamine-RNA injection
Protocol: The DNA oligonucleotide “CpG 1585” (invivogen) which is a mouse TLR9 agonist was diluted at 0.5 micrograms per microlitre in PBS. Imiquimod (invivogen) was diluted to 0.1 microgram per microliter in PBS. RNA (mRNA coding for firefly luciferase) and Protamine were diluted to 0.5 mg/ml using pure water. Hundred micrograms RNA (200 microliters) were mixed with hundred micrograms Protamine IPEX (200 microliters) thereby generating approximately 100 nm particles. Forty percent Glucose was added to reach 5% glucose final and 5% Glucose was added so that the final injectable solution contains 10 micrograms RNA (and 10 micrograms Protamine) in 70 microliters.
Mice were injected intravenous with 100 microliters of CpG (50 micrograms DNA “CpG(2h)PR11”) or 100 microliters of imiquimod (10 micrograms Imiquimod “Imi(2h)PR11”) or 70 microliters of Protamine-RNA particles (10 micrograms RNA “PR11(2h)PR11”) and 2 hours later all received 70 microliters of Protamine-RNA (10 micrograms RNA) intravenous. Three mice per group. Sera were drawn 3 hours after this second injection. As controls, mice were injected intravenous with 100 microliters of CpG (50 micrograms “CpG alone”) or 100 microliters of imiquimod (10 micrograms “Imi alone”) or 70 microliters of Protamine-RNA particles (10 micrograms RNA “PR11 alone”). Three mice per group. […] Interferon-alpha was measured in sera using Verikine™ ELISA kit from PBL. […]

Structure (SMILES): CC(C)Cn1cnc2c(N)nc3ccccc3c21 [Imiquimod]
- interferon-alpha in serum when given i.v. as first injection 2 h before Protamine-RNA particles: can sensitize the immune system to produce an enhanced amount of interferon-alpha
- interferon-alpha in serum when given i.v. as first injection 2 h before Protamine-RNA particles (listed as imiquimod): strong (synergistic) interferon production
